This is an account of results in patent US8722849B2, “Polypeptides” (Novo Nordisk A/S, priority 2011, dated 2014).

By EC50 is commonly meant the concentration at which the effect is half-maximal. As usually defined, the solubility is how much of the substance goes into solution per volume.

Series [1] deals with T1, human amylin receptor (amylin 3(a) receptor: human calcitonin receptor + RAMP-3) (Homo sapiens, UniProt O60896+P30988).
T1 construct: expressed in transfected cells; host or cells: BHK570
T1 sequence (P30988 25-474): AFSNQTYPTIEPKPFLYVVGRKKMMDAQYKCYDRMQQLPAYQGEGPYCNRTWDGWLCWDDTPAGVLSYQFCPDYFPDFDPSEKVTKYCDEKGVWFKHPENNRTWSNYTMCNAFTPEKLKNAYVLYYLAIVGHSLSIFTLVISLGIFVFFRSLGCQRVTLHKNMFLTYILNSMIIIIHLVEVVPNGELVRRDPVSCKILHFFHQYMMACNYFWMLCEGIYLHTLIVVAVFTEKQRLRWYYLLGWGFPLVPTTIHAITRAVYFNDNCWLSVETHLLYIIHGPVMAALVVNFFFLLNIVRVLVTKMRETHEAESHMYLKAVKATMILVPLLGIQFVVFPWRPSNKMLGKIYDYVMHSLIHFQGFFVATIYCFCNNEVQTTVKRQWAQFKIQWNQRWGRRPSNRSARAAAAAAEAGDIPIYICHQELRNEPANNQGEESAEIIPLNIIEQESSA
T1 sequence (O60896 24-148 partner): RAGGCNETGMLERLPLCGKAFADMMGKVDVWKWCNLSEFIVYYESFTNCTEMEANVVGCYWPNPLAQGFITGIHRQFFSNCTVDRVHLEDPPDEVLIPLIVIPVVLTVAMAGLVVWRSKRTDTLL
Briefly: Assay (II)a functional CRE-luciferase assay, human amylin receptor. Format: cell-based. To be noted: Table 2; BHK amylin 3(a)-receptor/CRE-luc cells.

In series [2] the target is T2, human calcitonin receptor (Homo sapiens, UniProt P30988).
T2 construct: expressed in transfected cells; host or cells: BHK570
T2 sequence (P30988 25-474): T1 sequence (P30988 25-474)
Briefly: Assay (II)a functional CRE-luciferase assay, human calcitonin receptor. To be noted: Table 7; human calcitonin (CTa) receptor. Format: cell-based.

Series [3] can be described thus: Assay (IV) determination of solubility. Format: physicochemical. An outline of the steps: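 Solubility is measured across pH 3.0–8.0 by mixing a ~500 nmol/ml aqueous polypeptide stock 1:1 with 100 mM glycylglycine or bistrispropane buffers. Samples stand 18 hours at room temperature, then are centrifuged and the soluble concentration is determined by HPLC.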
The mark [4] stands for this setting: bistrispropane buffer, pH 6, pH 6.0, read-out: Solubility pH 6.0.
The mark [5] stands for this setting: bistrispropane buffer, pH 6.5, pH 6.5, read-out: Solubility pH 6.5.
Where [6] appears, read: bistrispropane buffer, pH 7, pH 7.0, 18 hours at room temperature, Table 3, read-out: Solubility pH 7.0.
Where [7] appears, read: bistrispropane buffer, pH 7, pH 7.0, Table 8, read-out: Solubility pH 7.0.
[8] abbreviates: bistrispropane buffer, pH 7, pH 7.0, read-out: Solubility pH 7.0.
Where [9] appears, read: bistrispropane buffer, pH 7.5, pH 7.5, read-out: Solubility pH 7.5.
The mark [10] stands for this setting: bistrispropane buffer, pH 8, pH 8.0, read-out: Solubility pH 8.0.
Setting [11] is: glycylglycine buffer, pH 3, pH 3.0, read-out: Solubility pH 3.0.
[12] abbreviates: glycylglycine buffer, pH 4, pH 4.0, 18 hours at room temperature, Table 2, read-out: Solubility pH 4.0.
Setting [13] is: glycylglycine buffer, pH 4, pH 4.0, read-out: Solubility pH 4.0.
Where [14] appears, read: glycylglycine buffer, pH 5, pH 5.0, read-out: Solubility pH 5.0.
[15] abbreviates: bistrispropane buffer, pH 7, pH 7.0, Table 9, read-out: Solubility pH 7.0.
Where [16] appears, read: bistrispropane buffer, pH 7.5, pH 7.5, Table 9, read-out: Solubility pH 7.5.

In brackets after ≈: the same amount, converted by molar mass. Like-named read-outs stand apart in the source and are kept apart here. Starred links: 1 amine or outer side, 2 acyl side, 3 side chain; linkers in the order of their positions; H or OH if unused. Positions of bridges follow the written chain, without caps; N, C: chain ends. Residues, ends and D or L forms follow the SMILES beside them. *: point of attachment. C20 diacid = O=C(O)CCCCCCCCCCCCCCCCCCC(=O)*; γGlu = O=C(O)[C@H](CCC(=O)[*:2])N[*:1]

Turning to `CC(C)C[C@H](NC(=O)[C@H](CCCNC(=N)N)NC(=O)[C@H](CCC(N)=O)NC(=O)[C@@H](NC(=O)[C@H](C)NC(=O)[C@@H]1CSSC[C@H](NC(=O)[C@H](CCCCN)NC(=O)CC[C@H](NC(=O)CCCCCCCCCCCCCCCCCCC(=O)O)C(=O)O)C(=O)N[C@@H](CC(N)=O)C(=O)N[C@@H]([C@@H](C)O)C(=O)N[C@@H](C)C(=O)N[C@@H]([C@@H](C)O)C(=O)N1)[C@@H](C)O)C(=O)N[C@@H](C)C(=O)N[C@@H](CCC(=O)O)C(=O)N[C@@H](Cc1ccccc1)C(=O)N[C@@H](CC(C)C)C(=O)N[C@@H](CCCNC(=N)N)C(=O)N[C@@H](Cc1c[nH]cn1)C(=O)N[C@@H](CO)C(=O)N[C@@H](CO)C(=O)N[C@@H](CC(N)=O)C(=O)N[C@@H](CC(N)=O)C(=O)N[C@@H](Cc1ccccc1)C(=O)NCC(=O)N[C@@H](C)C(=O)N1CCC[C@H]1C(=O)N[C@@H](CC(C)C)C(=O)N[C@@H](CO)C(=O)N[C@@H](CO)C(=O)N[C@H](C(=O)N[C@@H](CC(N)=O)C(=O)N[C@H](C(=O)NCC(=O)N[C@@H](CO)C(=O)N[C@@H](Cc1c[nH]cn1)C(=O)N[C@H](C(=O)N[C@@H](Cc1ccc(O)cc1)C(N)=O)[C@@H](C)O)C(C)C)[C@@H](C)O` [Example 65, N-alpha-[(S)-4-Carboxy-4-(19-carboxynonadecanoylamino)butyryl]-[Glu14,Arg17,Ala25,Pro26,Ser28,Ser29,His35]-pramlintide] ({C20 diacid-γGlu}-KCNTATCATQRLAEFLRHSSNNFGAPLSSTNVGSHTY-NH2; disulfide 2-7 (inferred); C-terminus assumed), the EC50 in series [1] was found to be 0.217 nM; in series [2], 0.342 nM. Further, the solubility at 18 h in series [3] (setting [4]) was greater than 200 µM; in series [3] (setting [5]) it was greater than 200 µM; in series [3] (setting [6]), 176 µM (≈ 781 µg/mL); in series [3] (setting [7]), 176 µM (≈ 781 µg/mL); in series [3] (setting [8]) it was 176 µM (≈ 781 µg/mL); in series [3] (setting [9]), 96 µM (≈ 426 µg/mL). Also, the solubility at 18 h was 89 µM (≈ 395 µg/mL) in series [3] (setting [10]); greater than 200 µM in series [3] (setting [11]); greater than 200 µM in series [3] (setting [12]); greater than 200 µM in series [3] (setting [13]); greater than 200 µM in series [3] (setting [14]).

Regarding `CC[C@H](C)[C@H](NC(=O)[C@@H]1CCCN1C(=O)CNC(=O)[C@H](Cc1ccccc1)NC(=O)[C@H](CC(N)=O)NC(=O)[C@H](CC(N)=O)NC(=O)[C@H](CO)NC(=O)[C@H](CO)NC(=O)[C@H](Cc1c[nH]cn1)NC(=O)[C@H](Cc1c[nH]cn1)NC(=O)[C@H](CC(C)C)NC(=O)[C@H](Cc1ccccc1)NC(=O)[C@H](CCC(=O)O)NC(=O)[C@H](C)NC(=O)[C@H](CC(C)C)NC(=O)[C@H](CCCNC(=N)N)NC(=O)[C@H](CCC(N)=O)NC(=O)[C@@H](NC(=O)[C@H](C)NC(=O)[C@@H]1CSSC[C@H](NC(=O)[C@H](CCCCN)NC(=O)[C@H](Cc2c[nH]cn2)NC(=O)CC[C@H](NC(=O)CCCCCCCCCCCCCCCCCCC(=O)O)C(=O)O)C(=O)N[C@@H](CC(N)=O)C(=O)N[C@@H]([C@@H](C)O)C(=O)N[C@@H](C)C(=O)N[C@@H]([C@@H](C)O)C(=O)N1)[C@@H](C)O)C(=O)N[C@@H](CC(C)C)C(=O)N1CCC[C@H]1C(=O)N1CCC[C@H]1C(=O)N[C@H](C(=O)N[C@@H](CC(N)=O)C(=O)N[C@H](C(=O)NCC(=O)N[C@@H](CO)C(=O)N[C@@H](Cc1c[nH]cn1)C(=O)N[C@H](C(=O)N[C@@H](Cc1ccc(O)cc1)C(N)=O)[C@@H](C)O)C(C)C)[C@@H](C)O` [Example 66, N-alpha-[(S)-4-Carboxy-4-(19-carboxynonadecanoylamino)butyryl]-His-[Glu14,His17,His35]-pramlintide] ({C20 diacid-γGlu}-HKCNTATCATQRLAEFLHHSSNNFGPILPPTNVGSHTY-NH2; disulfide 3-8 (inferred); C-terminus assumed), the EC50 in series [1] is 0.182 nM; in series [2], 0.21 nM. Also, the solubility at 18 h in series [3] (setting [4]) was greater than 200 µM; in series [3] (setting [5]) it was 155 µM (≈ 716 µg/mL); in series [3] (setting [8]), 46 µM (≈ 212 µg/mL); in series [3] (setting [9]) it was 77 µM (≈ 355 µg/mL); in series [3] (setting [10]), 144 µM (≈ 665 µg/mL); in series [3] (setting [11]), greater than 200 µM. Also, the solubility at 18 h in series [3] (setting [12]), in series [3] (setting [13]) and in series [3] (setting [14]) was greater than 200 µM in each case.

On to `CC[C@H](C)[C@H](NC(=O)[C@@H]1CCCN1C(=O)CNC(=O)[C@H](Cc1ccccc1)NC(=O)[C@H](CC(N)=O)NC(=O)[C@H](CC(N)=O)NC(=O)[C@H](CO)NC(=O)[C@H](CO)NC(=O)[C@H](Cc1c[nH]cn1)NC(=O)[C@H](CCCNC(=N)N)NC(=O)[C@H](CC(C)C)NC(=O)[C@H](Cc1ccccc1)NC(=O)[C@H](CCC(=O)O)NC(=O)[C@H](C)NC(=O)[C@H](CC(C)C)NC(=O)[C@H](CCCNC(=N)N)NC(=O)[C@H](CCC(N)=O)NC(=O)[C@@H](NC(=O)[C@H](C)NC(=O)[C@@H]1CSSC[C@H](NC(=O)CNC(=O)CC[C@H](NC(=O)CCCCCCCCCCCCCCCCCCC(=O)O)C(=O)O)C(=O)N[C@@H](CC(N)=O)C(=O)N[C@@H]([C@@H](C)O)C(=O)N[C@@H](C)C(=O)N[C@@H]([C@@H](C)O)C(=O)N1)[C@@H](C)O)C(=O)N[C@@H](CC(C)C)C(=O)N1CCC[C@H]1C(=O)N1CCC[C@H]1C(=O)N[C@H](C(=O)N[C@@H](CC(N)=O)C(=O)N[C@H](C(=O)NCC(=O)N[C@@H](CO)C(=O)N[C@@H](CC(N)=O)C(=O)N[C@H](C(=O)N1CCC[C@H]1C(N)=O)[C@@H](C)O)C(C)C)[C@@H](C)O` [Example 88, N-alpha-[(S)-4-Carboxy-4-(19-carboxynonadecanoylamino)butyryl]-[Gly1,Glu14,Arg17,Pro37]-pramlintide] ({C20 diacid-γGlu}-GCNTATCATQRLAEFLRHSSNNFGPILPPTNVGSNTP-NH2; disulfide 2-7 (inferred); C-terminus assumed), for which the EC50 in series [1] was determined as 0.036 nM; in series [2], 0.055 nM. The solubility at 18 h in series [3] (setting [4]), in series [3] (setting [5]), in series [3] (setting [6]), in series [3] (setting [7]), in series [3] (setting [15]) and in series [3] (setting [8]) was greater than 200 µM each time. For the same compound, the solubility at 18 h in series [3] (setting [16]), in series [3] (setting [9]), in series [3] (setting [10]), in series [3] (setting [11]), in series [3] (setting [12]) and in series [3] (setting [13]) was greater than 200 µM each time. In addition, in series [3] (setting [14]), the solubility at 18 h was greater than 200 µM.

Take `CC[C@H](C)[C@H](NC(=O)[C@@H]1CCCN1C(=O)CNC(=O)[C@H](Cc1ccccc1)NC(=O)[C@H](CC(N)=O)NC(=O)[C@H](CC(N)=O)NC(=O)[C@H](CO)NC(=O)[C@H](CO)NC(=O)[C@H](Cc1c[nH]cn1)NC(=O)[C@H](CCCNC(=N)N)NC(=O)[C@H](CC(C)C)NC(=O)[C@H](Cc1ccccc1)NC(=O)[C@H](CCC(=O)O)NC(=O)[C@H](C)NC(=O)[C@H](CC(C)C)NC(=O)[C@H](CCCNC(=N)N)NC(=O)[C@H](CCC(N)=O)NC(=O)[C@@H](NC(=O)[C@H](C)NC(=O)[C@@H]1CSSC[C@H](NC(=O)[C@H](CCCCN)NC(=O)CC[C@H](NC(=O)CCCCCCCCCCCCCCCCCCC(=O)O)C(=O)O)C(=O)N[C@@H](CC(N)=O)C(=O)N[C@@H]([C@@H](C)O)C(=O)N[C@@H](C)C(=O)N[C@@H]([C@@H](C)O)C(=O)N1)[C@@H](C)O)C(=O)N[C@@H](CC(C)C)C(=O)N1CCC[C@H]1C(=O)N1CCC[C@H]1C(=O)N[C@H](C(=O)N[C@@H](CC(N)=O)C(=O)N[C@H](C(=O)NCC(=O)N[C@@H](CO)C(=O)N[C@@H](CC(N)=O)C(=O)N[C@H](C(=O)N1CCC[C@H]1C(N)=O)[C@@H](C)O)C(C)C)[C@@H](C)O` [Example 53, N-alpha-[(S)-4-Carboxy-4-(19-carboxynonadecanoylamino)butyryl]-[Glu14,Arg17,Pro37]-pramlintide]: the solubility at 18 h in series [3] (setting [4]), in series [3] (setting [5]), in series [3] (setting [6]), in series [3] (setting [7]), in series [3] (setting [15]) and in series [3] (setting [8]) was greater than 200 µM throughout. Besides, the solubility at 18 h in series [3] (setting [16]), in series [3] (setting [9]), in series [3] (setting [10]), in series [3] (setting [11]), in series [3] (setting [12]) and in series [3] (setting [13]) was greater than 200 µM each time. In addition, the solubility at 18 h in series [3] (setting [14]) was greater than 200 µM.
